IC50 data for one compound are collected here from paper doi:10.1101/2025.02.22.639610v1, “Excavating Podocyte-Protective Targets of phloroglucinol-terpene hybrids Utilizing AI Models and Omics Analysis” (biorxiv, 2025).

This assay concerns the target T1, EGFR^WT kinase (Homo sapiens, UniProt P00533).
T1 construct: commercial wild-type EGFR kinase (Sigma Aldrich)
As to the kind of experiment: HTRF KinEASE-TK kinase assay. The format is biochemical.

T1 sequence (P00533 25-1210): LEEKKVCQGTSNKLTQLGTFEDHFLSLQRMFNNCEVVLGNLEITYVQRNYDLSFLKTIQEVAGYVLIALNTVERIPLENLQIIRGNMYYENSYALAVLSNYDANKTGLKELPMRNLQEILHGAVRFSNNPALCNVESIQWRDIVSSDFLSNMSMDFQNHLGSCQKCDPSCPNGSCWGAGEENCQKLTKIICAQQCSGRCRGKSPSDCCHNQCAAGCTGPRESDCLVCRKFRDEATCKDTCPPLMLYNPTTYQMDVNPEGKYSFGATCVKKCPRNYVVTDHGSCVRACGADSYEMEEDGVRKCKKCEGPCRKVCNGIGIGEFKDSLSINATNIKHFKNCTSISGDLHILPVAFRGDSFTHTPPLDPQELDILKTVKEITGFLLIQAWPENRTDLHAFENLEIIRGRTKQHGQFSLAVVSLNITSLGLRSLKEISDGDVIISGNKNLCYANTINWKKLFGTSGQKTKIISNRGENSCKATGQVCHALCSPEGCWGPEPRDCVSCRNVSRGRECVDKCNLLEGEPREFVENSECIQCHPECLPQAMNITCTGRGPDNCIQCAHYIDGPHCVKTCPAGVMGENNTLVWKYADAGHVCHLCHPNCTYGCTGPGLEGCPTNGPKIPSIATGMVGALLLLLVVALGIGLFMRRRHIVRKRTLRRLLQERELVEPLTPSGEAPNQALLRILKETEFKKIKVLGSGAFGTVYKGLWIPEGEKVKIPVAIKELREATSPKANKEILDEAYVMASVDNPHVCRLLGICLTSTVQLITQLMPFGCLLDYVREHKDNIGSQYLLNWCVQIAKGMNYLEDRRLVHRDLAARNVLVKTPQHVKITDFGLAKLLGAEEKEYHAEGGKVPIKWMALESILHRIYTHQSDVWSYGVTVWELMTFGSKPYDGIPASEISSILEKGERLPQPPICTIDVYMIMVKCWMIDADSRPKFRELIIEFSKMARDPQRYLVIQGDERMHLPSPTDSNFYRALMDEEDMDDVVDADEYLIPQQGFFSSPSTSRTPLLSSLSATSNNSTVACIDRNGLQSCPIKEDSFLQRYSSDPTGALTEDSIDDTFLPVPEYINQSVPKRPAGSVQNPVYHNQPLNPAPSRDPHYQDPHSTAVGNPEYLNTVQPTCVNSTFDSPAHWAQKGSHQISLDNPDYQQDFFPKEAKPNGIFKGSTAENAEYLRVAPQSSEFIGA

On to `C=C(C)[C@H]1C=C2[C@H](C)CC[C@H](Cc3c(O)c(C=O)c4c(c3O)C(=O)CC(C)(C)O4)[C@@]2(C)CC1` [R14, Eucarbwenstols D], for which the IC50 came to 0.191 µM.

A word on the IC50: it is the midpoint of a concentration-inhibition curve. Low readings indicate greater potency in that assay, high ones weaker potency in that assay.
